Experiments:
[1] = Half life in Sprague-Dawley rat at 1 mg/kg,iv administration by LC-MS/MS analysis; type: ADME, organism-based; conditions: in vivo
[2] = Oral bioavailability in Sprague-Dawley rat at 5 mg/kg administration by LC-MS/MS analysis; type: ADME, organism-based; conditions: in vivo

Row | half-life [1] [min] | bioavailability [2] [%] | SMILES
1 | 18 | 69 | CCNC(=O)c1cc(OC(C)c2ccc(Cl)cc2F)c(C(=O)NC)[nH]1 (stereo not drawn)
2 | 24 | 46 | CCNC(=O)c1cc(OC(C)c2ccccc2F)c(C(=O)NC)[nH]1 (stereo not drawn)
3 | 66 | 30 | CCNC(=O)c1cc(OC(C)c2ccc(Cl)cc2)c(C(=O)NC)[nH]1 (stereo not drawn)
4 | 36 | 15 | CNC(=O)c1[nH]c(C(=O)NC2COC2)cc1OC(C)c1ccc(Cl)cc1 (stereo not drawn)
5 | – | 70 | CNC(=O)c1[nH]c(C(=O)NC2CC2)cc1O[C@@H](C)c1ccccc1F
6 | – | 65 | CNC(=O)c1[nH]c(C(=O)NC2CCC2)cc1OC(C)c1ccc(Cl)cc1F (single isomer, unassigned)
7 | 84 | 66 | CNC(=O)c1[nH]c(C(=O)N[C@H]2CC[C@H](O)CC2)cc1OC(C)c1ccc(Cl)cc1F (stereo partly drawn)
8 | 54 | 66 | CNC(=O)c1[nH]c(C(=O)NC2CCC2)cc1OC(C)c1ccccc1 (stereo not drawn)
9 | 30 | 58 | CNC(=O)c1[nH]c(C(=O)NC2CCC2)cc1OC(C)c1ccccc1F (stereo not drawn)
10 | 24 | 47 | CNC(=O)c1[nH]c(C(=O)NC2CCC2)cc1OC(C)c1ccc(Cl)cc1 (stereo not drawn)
